Entries after “also recorded” stand apart in the source; their conditions may differ.
Assays:
[1] = system: zebrafish larvae with PSA-induced IBD; assay: In vivo examination of gut architecture and motility (quercetin labelling) in PSA-induced IBD; settings: for Rescue of the IBD phenotype: IBD induced with PSA 3 to 5 d.p.f., drug added with PSA from 5 d.p.f.
[2] = system: zebrafish larvae with PSA-induced IBD; assay: Histology (haematoxylin and eosin sections) of gut in PSA-induced IBD; assay type: in vivo
zebrafish larvae = assay: Suitability of fluorescent stains for in vivo gut visualisation
Method: In vivo labelling was achieved by rearing fish in a suspension of 0.05% quercetin (Sigma) for a minimum of 2 hours. To observe gut architecture and motility, larvae were anaesthetised larvae by immersion in 0.2 mg/ml 3-amino benzoic acid ethylester (MS222) (Sigma). Gut architecture and motility can be observed using the FITC and GFP filter sets.
Visualisation is achieved by the administration of a fluorescent dye to the embryo medium. The dye is swallowed by the fish but not readily absorbed and therefore fills the entire gut.
When viewed under a fluorescent microscope, the crypts and villi of the gut were apparent as the unstained tissue of the gut wall was highlighted in contrast to the fluorescent medium that filled the gut lumen. In addition, as staining can be performed in vivo, waves of peristalsis were observed (as indicated in the different positions of the gut wall).

zebrafish = assay: DMSO tolerance of zebrafish; settings: in vivo
Text: Moreover, the inventors have discovered that zebrafish are also DMSO (dimethyl sulphoxide) tolerant. This is important as DMSO is used as a solvent to dissolve many drugs. The inventors have established that zebrafish can tolerate 1% DMSO. Thus, a candidate drug or other test substance may be dissolved in DMSO and administered to zebrafish by adding to the fish water to give a final concentration of DMSO of at least up to 1%. This is employed in various preferred aspects and embodiments of the present invention.

TNFα = settings: co-administration with PSA from 3 to 8 d.p.f.

Nc1ccc(O)c(C(=O)O)c1 [5-ASA, 5-amino salicylic acid]
Rescue of the IBD phenotype [1]: Rescue of the IBD phenotype was seen | Rescue of the IBD phenotype ([1]; listed as salicylic acid): rescue of the disease phenotype | Effect when administered after the induction of disease changes ([2]; drug given after PSA induction): effective when administered after the induction of disease changes | Prevention/rescue of disease changes when co-administered with PSA ([2]; effective dose co-administered with PSA, histological analysis): able to prevent/rescue disease changes

O=c1c(O)c(-c2ccc(O)c(O)c2)oc2cc(O)cc(O)c12 [quercetin]
Toxicity as in vivo gut stain (zebrafish larvae): low toxicity

C[S+](C)[O-] [DMSO, dimethyl sulphoxide]
Tolerated DMSO concentration in fish water (zebrafish): 1%

O=C1CCC(N2C(=O)c3ccccc3C2=O)C(=O)N1 (stereo not drawn) [thalidomide]
TNFα expression (TNFα): down-regulation of TNFα expression | Rescue of the in vivo disease phenotype ([1]; co-administration with PSA from 3 to 8 d.p.f., observed at 8 d.p.f.): failed to rescue the in vivo disease phenotype; also recorded: neither rescues the disease changes | Rescue / improvement in gut histology ([2]; co-administration with PSA from 3 to 8 d.p.f.): failed to show improvement; also recorded: neither rescues the disease changes

— patent US20060233709A1, “Method for identifying novel treatments of inflammatory disease in the gut” (priority 2003, published 2006)
